| Structure (SMILES) | melting point [°C] |
| --- | --- |
| CCN(CC)C(=N)NC(=O)c1cccc(C2=NC3CCCCC3c3cc(OC)c(OC)cc32)c1 [Compound 12, N′-{1[3-((4aR,10bR)-8,9-Dimethoxy-1,2,3,4,a,10b-hexahydrophenanthridin-6-yl)-phenyl]-methanoyl}-N,N-diethylquanidine] | 89 to 91 |
| COc1cc2c(cc1OC)[C@H]1CCCC[C@H]1N=C2c1ccc(C(=O)NC(=N)n2nc(C)cc2C)cc1 [Compound 11, 4((4aR,10bR)-8,9-Dimethoxy-1,2,3,4,4a,10b-hexahydro-phenanthridin-6-yl)-N-[1-(3,5-dimethyl-pyrazol-1-yl)-1-imino-methyl]-benzamide] | 179 to 180 |
| COc1cc2c(cc1OC)[C@H]1CCCC[C@H]1N=C2c1cccc(C(=O)NC(=N)N2CCOCC2)c1 [Compound 13, 3-((4aR,10bR)-8,9-Dimethoxy-1,2,3,4,4a,10b-hexahydrophenanthridin-6-yl)-N-(1-imino-1-morpholin-4yl-methyl)-benzamide] | 187 to 188 |
| CCN(CC)C(=N)NC(=O)c1ccc(C2=N[C@@H]3CCCC[C@@H]3c3cc(OC)c(OC)cc32)cc1 [Compound 1, N′-{-[4-((4aR,10bR)-8,9-Dimethoxy-1,2,3,4,4a,10b-hexahydrophenanthridin-6yl)-phenyl]-methanoyl}-N,N-diethylquanidine] | 132 to 135 |

More lines, now with the values ahead:

| melting point [°C] | Structure (SMILES) |
| --- | --- |
| 133 | COc1cc2c(cc1OC)C1CCCCC1N=C2c1ccc(C(=O)NC(=N)N2CCN(C)CC2)cc1 (stereo not drawn) [Compound 5] |
| 126 | COc1cc2c(cc1OC)C1CCCCC1N=C2c1ccc(C(=O)NC(=N)N2CCCC2)cc1 [Compound 9, 4-((4aR,10bR)-8,9-Dimethoxy-1,2,3,4,4a.10b-hexahydro-phenanthridin-6-yl)-N-(1-imino-1-pyrrolidin-1-yl-methyl)-benzamide] |

— US20060116518A1, “Novel phenanthridines” (Altana Pharma AG, priority 2002, published 2006)
